Data reported in patent US9745324B2, “Iminothiadiazepane dioxide compounds as BACE inhibitors, compositions, and their use” (Merck Sharp & Dohme Corp., priority 2013, dated 2017).
pKi: −log10 of the molar value.

Assays:
[1] = molecular target: purified human autoBACE-2 (Homo sapiens, UniProt Q9Y5Z0); test: BACE-2 Assay (BACE-HTRF assay); format: biochemical; settings: Ki calculated from IC50 using the Cheng-Prusoff equation; QSY7-EISEVNLDAEFC-Eu-amide substrate, pH 5.0; read-out: BACE2 Ki
Protocol: DMSO is present at 5% final concentration in the assay. Following laser excitation of sample wells at 320 nm, the fluorescence signal at 620 nm is collected for 400 ms following a 50 μs delay on a RUBYstar HTRF plate reader (BMG Labtechnologies). Raw RFU data is normalized to maximum (1.0 nM BACE/DMSO) and minimum (no enzyme/DMSO) RFU values. […] The Ki values are calculated from the IC50 using the Cheng-Prusoff equation.

[2] = molecular target: soluble human BACE1 catalytic domain (Homo sapiens (Human), UniProt P56817); test: BACE1 HTRF FRET Assay; format: biochemical; settings: Ki calculated from IC50 using the Cheng-Prusoff equation; QSY7-APPswe-Eu substrate, pH 5.0
Chain of soluble human BACE1 catalytic domain (P56817 75-416): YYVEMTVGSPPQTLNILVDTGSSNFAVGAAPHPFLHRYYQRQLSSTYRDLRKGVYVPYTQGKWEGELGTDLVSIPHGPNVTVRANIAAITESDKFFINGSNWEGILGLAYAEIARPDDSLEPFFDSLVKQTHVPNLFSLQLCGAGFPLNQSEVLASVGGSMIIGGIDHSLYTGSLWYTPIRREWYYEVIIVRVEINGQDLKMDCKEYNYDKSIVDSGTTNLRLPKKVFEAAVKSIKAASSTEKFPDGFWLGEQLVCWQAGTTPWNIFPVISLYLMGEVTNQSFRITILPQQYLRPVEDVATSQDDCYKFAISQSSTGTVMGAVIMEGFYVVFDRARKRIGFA
Text: Reagents: Na^+-Acetate pH 5.0; 1% Brij-35; Glycerol; Dimethyl Sulfoxide (DMSO); Recombinant human soluble BACE1 catalytic domain (>95% pure); APP Swedish mutant peptide substrate (QSY7-APP^swe-Eu): QSY7-[…]-Europium-amide (SEQ ID 1).
A homogeneous time-resolved FRET assay can be used to determine IC50 values for inhibitors of the soluble human BACE1 catalytic domain. This assay monitors the increase of 620 nm fluorescence that resulted from BACE1 cleavage of an APPswedish APP^swe mutant peptide FRET substrate (QSY7-[…]-Europium-amide (SEQ ID 1)). This substrate contains an N-terminal QSY7 moiety that serves as a quencher of the C-terminal Europium fluorophore (620 nm Em). […] Inhibition of BACE1 cleavage of the QSY7-APP^swe-Eu substrate by inhibitors is manifested as a suppression of 620 nm fluorescence.
Varying concentrations of inhibitors at 3× the final desired concentration in a volume of 10 ul are preincubated with purified human BACE1 catalytic domain (3 nM in 10 μl) for 30 minutes at 30° C. in reaction buffer containing 20 mM Na-Acetate pH 5.0, 10% glycerol, 0.1% Brij-35 and 7.5% DSMO. Reactions are initiated by addition of 10 μl of 600 nM QSY7-APP^swe-Eu substrate (200 nM final) to give a final reaction volume of 30 μl in a 384 well Nunc HTRF plate. The reactions are incubated at 30° C. for 1.5 hours. The 620 nm fluorescence is then read on a Rubystar HTRF plate reader (BMG Labtechnologies) using a 50 millisecond delay followed by a 400 millisecond acquisition time window. Inhibitor IC50 values are derived from non-linear regression analysis of concentration response curves.

Chain of purified human autoBACE-2 (Q9Y5Z0 63-518 limits assumed): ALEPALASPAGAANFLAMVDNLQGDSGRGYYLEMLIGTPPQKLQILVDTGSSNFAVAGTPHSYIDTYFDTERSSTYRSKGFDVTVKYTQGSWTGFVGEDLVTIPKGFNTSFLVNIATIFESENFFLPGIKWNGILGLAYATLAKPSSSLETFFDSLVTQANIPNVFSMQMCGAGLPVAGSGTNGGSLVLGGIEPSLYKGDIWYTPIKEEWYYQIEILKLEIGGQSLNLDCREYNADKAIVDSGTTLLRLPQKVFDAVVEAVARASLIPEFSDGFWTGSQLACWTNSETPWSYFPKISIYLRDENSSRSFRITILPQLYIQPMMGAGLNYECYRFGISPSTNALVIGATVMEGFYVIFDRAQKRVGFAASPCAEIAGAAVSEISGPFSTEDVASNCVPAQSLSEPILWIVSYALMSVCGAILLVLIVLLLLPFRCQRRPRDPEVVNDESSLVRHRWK

Compound | pKi [1] | pKi [2]
COc1cnc(C(=O)Nc2ccc(F)c([C@]3(C)CN(C)S(=O)(=O)C(C)(C)C(=N)N3)c2)cn1 [Example 1, N-{4-fluoro-3-[(4R)-6-imino-2,4,7,7-tetramethyl-1,1-dioxido-1,2,5-thiadiazepan-4-yl]phenyl}-5-methoxypyrazine-2-carboxamide] | 6.99 | 7.43
CN1C[C@@](C)(c2cc(NC(=O)c3ccn(C(F)F)n3)ccc2F)NC(=N)C(C)(C)S1(=O)=O [Example 2, 1-(difluoromethyl)-N-{4-fluoro-3-[(4R)-6-imino-2,4,7,7-tetramethyl-1,1-dioxido-1,2,5-thiadiazepan-4-yl]phenyl}-1H-pyrazole-3-carboxamide] | 8.22 | 7.34
CN1C[C@@](C)(c2cc(NC(=O)c3ccc(F)cn3)ccc2F)NC(=N)C(C)(C)S1(=O)=O [Example 3, 5-fluoro-N-{4-fluoro-3-[(4R)-6-imino-2,4,7,7-tetramethyl-1,1-dioxido-1,2,5-thiadiazepan-4-yl]phenyl}pyridine-2-carboxamide] | 7.89 | 7.27
CN1C[C@@](C)(c2cc(NC(=O)c3ccc(OC(F)F)cn3)ccc2F)NC(=N)C(C)(C)S1(=O)=O [Example 4, 5-(difluoromethoxy)-N-{4-fluoro-3-[(4R)-6-imino-2,4,7,7-tetramethyl-1,1-dioxido-1,2,5-thiadiazepan-4-yl]phenyl}pyridine-2-carboxamide] | 6.84 | 7.49
CN1C[C@@](C)(c2cc(NC(=O)c3ccc(C(F)(F)F)cn3)ccc2F)NC(=N)C(C)(C)S1(=O)=O [Example 5, N-{4-fluoro-3-[(4R)-6-imino-2,4,7,7-tetramethyl-1,1-dioxido-1,2,5--thiadiazepan-4-yl]phenyl}-5-(trifluoromethyl)pyridine-2-carboxamide] | 6.94 | 7.23
COc1ccc(C(=O)Nc2ccc(F)c([C@]3(C)CN(C)S(=O)(=O)C(C)(C)C(=N)N3)c2)nc1 [Example 6, N-{4-fluoro-3-[(4R)-6-imino-2,4,7,7-tetramethyl-1,1-dioxido-1,2,5-thiadiazepan-4-yl]phenyl}-5-methoxypyridine-2-carboxamide] | 7.36 | 7.48
CN1C[C@@](C)(c2cc(NC(=O)c3ccc(Cl)cn3)ccc2F)NC(=N)C(C)(C)S1(=O)=O [Example 7, 5-chloro-N-{4-fluoro-3-[(4R)-6-imino-2,4,7,7-tetramethyl-1,1-dioxido-1,2,5-thiadiazepan-4-yl]phenyl}pyridine-2-carboxamide] | 8.10 | 
CN1C[C@@](C)(c2cc(NC(=O)c3ccc(C#N)cn3)ccc2F)NC(=N)C(C)(C)S1(=O)=O [Example 8, 5-cyano-N-{4-fluoro-3-[(4R)-6-imino-2,4,7,7-tetramethyl-1,1-dioxido-1,2,5-thiadiazepan-4-yl]phenyl}pyridine-2-carboxamide] | 7.49 | 7.66
COc1cnc(C(=O)Nc2ccc(F)c([C@]3(C)CN(C)S(=O)(=O)C(C)(C)C(=N)N3)c2)c(C)c1 [Example 9, N-{4-fluoro-3-[(4R)-6-imino-2,4,7,7-tetramethyl-1,1-dioxido-1,2,5-thiadiazepan-4-yl]phenyl}-5-methoxy-3-methylpyridine-2-carboxamide] | 7.49 | 7.17
COc1cnc(C(=O)Nc2ccc(F)c([C@]3(C)CN(C)S(=O)(=O)C(C)(C)C(=N)N3)c2)c(C)n1 [Example 10, N-{4-fluoro-3-[(4R)-6-imino-2,4,7,7-tetramethyl-1,1-dioxido-1,2,5-thiadiazepan-4-yl]phenyl}-5-methoxy-3-methylpyrazine-2-carboxamide] | 7.23 | 7.21
Cc1cc(C#N)cnc1C(=O)Nc1ccc(F)c([C@]2(C)CN(C)S(=O)(=O)C(C)(C)C(=N)N2)c1 [Example 11, 5-cyano-N-{4-fluoro-3-[(4R)-6-imino-2,4,7,7-tetramethyl-1,1-dioxido-1,2,5-thiadiazepan-4-yl]phenyl}-3-methylpyridine-2-carboxamide] | 7.55 | 7.62
CN1C[C@@](C)(c2cc(NC(=O)c3cnc(OCC(F)(F)F)cn3)ccc2F)NC(=N)C(C)(C)S1(=O)=O [Example 12, N-{4-fluoro-3-[(4R)-6-imino-2,4,7,7-tetramethyl-1,1-dioxido-1,2,5-thiadiazepan-4-yl]phenyl}-5-(2,2,2-trifluoroethoxy)pyrazine-2-carboxamide] | 6.77 | 7.77

Results, then the molecule that gave them:

pKi [1] | pKi [2] | Compound
6.96 | 6.58 | CN1C[C@@](C)(c2cc(NC(=O)c3cnccn3)ccc2F)NC(=N)C(C)(C)S1(=O)=O [Example 13, N-{4-fluoro-3-[(4R)-6-imino-2,4,7,7-tetramethyl-1,1-dioxido-1,2,5-thiadiazepan-4-yl]phenyl}pyrazine-2-carboxamide]
6.66 | 7.28 | CN1C[C@@](C)(c2cc(NC(=O)c3cnc(OCCF)cn3)ccc2F)NC(=N)C(C)(C)S1(=O)=O [Example 14, 5-(2-fluoroethoxy)-N-{4-fluoro-3-[(4R)-6-imino-2,4,7,7-tetramethyl-1,1-dioxido-1,2,5-thiadiazepan-4-y]phenyl}pyrazine-2-carboxamide]
7.57 | 6.82 | Cc1nc(C(=O)Nc2ccc(F)c([C@]3(C)CN(C)S(=O)(=O)C(C)(C)C(=N)N3)c2)no1 [Example 15, N-{4-fluoro-3-[(4R)-6-imino-2,4,7,7-tetramethyl-1,1-dioxido-1,2,5-thiadiazepan-4-yl]phenyl}-5-methyl-1,2,4-oxadiazole-3-carboxamide]
7.60 | 7.19 | CN1C[C@@](C)(c2cc(NC(=O)c3cnsn3)ccc2F)NC(=N)C(C)(C)S1(=O)=O [Example 16, N-{4-fluoro-3-[(4R)-6-imino-2,4,7,7-tetramethyl-1,1-dioxido-1,2,5-thiadiazepan-4-yl]phenyl}-1,2,5-thiadiazole-3-carboxamide]
5.13 | 5.25 | CN1C[C@@](C)(c2cc(NC(=O)c3cn4ccc(C#N)cc4n3)ccc2F)NC(=N)C(C)(C)S1(=O)=O [Example 17, 7-cyano-N-{4-fluoro-3-[(4R)-6-imino-2,4,7,7-tetramethyl-1,1-dioxido-1,2,5-thiadiazepan-4-yl]phenyl}imidazo[1,2-a]pyridine-2-carboxamide]
7.38 | 6.57 | CN1C[C@@](C)(c2cc(NC(=O)c3ccn(C)n3)ccc2F)NC(=N)C(C)(C)S1(=O)=O [Example 18, N-{4-fluoro-3-[(4R)-6-imino-2,4,7,7-tetramethyl-1,1-dioxido-1,2,5-thiadiazepan-4-yl]phenyl}-1-methyl-1H-pyrazole-3-carboxamide]
6.46 | 5.86 | Cc1cc(C(=O)Nc2ccc(F)c([C@]3(C)CN(C)S(=O)(=O)C(C)(C)C(=N)N3)c2)no1 [Example 19, N-{4-fluoro-3-[(4R)-6-imino-2,4,7,7-tetramethyl-1,1-dioxido-1,2,5-thiadiazepan-4-yl]phenyl}-5-methylisoxazole-3-carboxamide]
< 5.02 | 5.94 | Cc1nc2ccc(C(=O)Nc3ccc(F)c([C@]4(C)CN(C)S(=O)(=O)C(C)(C)C(=N)N4)c3)cc2o1 [Example 20, N-{4-fluoro-3-[(4R)-6-imino-2,4,7,7-tetramethyl-1,1-dioxido-1,2,5-thiadiazepan-4-yl]phenyl}-2-methyl-1,3-benzoxazole-6-carboxamide]
7.37 | 6.64 | CN1C[C@@](C)(c2cc(NC(=O)c3ccccn3)ccc2F)NC(=N)C(C)(C)S1(=O)=O [Example 21, N-{4-fluoro-3-[(4R)-6-imino-2,4,7,7-tetramethyl-1,1-dioxido-1,2,5-thiadiazepan-4-yl]phenyl}pyridine-2-carboxamide]
5.99 | 5.77 | Cc1cc(C(=O)Nc2ccc(F)c([C@]3(C)CN(C)S(=O)(=O)C(C)(C)C(=N)N3)c2)on1 [Example 22, N-{4-fluoro-3-[(4R)-6-imino-2,4,7,7-tetramethyl-1,1-dioxido-1,2,5-thiadiazepan-4-yl]phenyl}-3-methylisoxazole-5-carboxamide]
8.19 | 7.68 | CN1C[C@@](C)(c2cc(NC(=O)c3ncc(Cl)cc3F)ccc2F)NC(=N)C(C)(C)S1(=O)=O [Example 23, 5-chloro-3-fluoro-N-{4-fluoro-3-[(4R)-6-imino-2,4,7,7-tetramethyl-1,1-dioxido-1,2,5-thiadiazepan-4-yl]phenyl}pyridine-2-carboxamide]
